Experimental data: US7572606B1 (Nereus Pharmaceuticals, Inc., priority 2005, dated 2009)
Where two headings read alike, the source gives them in different places.

Experiments:
NCI-H292 = experiment: Cell growth inhibition, resazurin, 48 h; type: cell-based, human; settings: NCI-H292, 48 h drug exposure
[1] = test system: NF-κB-mediated luciferase activity in HEK293 NF-κB/Luc cells; experiment: NF-κB-mediated luciferase reporter gene assay; type: cell-based, human; settings: for EC50: 6 h TNF-α stimulation; for luciferase activity upon TNF-α stimulation: pretreatment of NF-κB/Luc 293 cells
Summary of the method: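 HEK293 cells carrying luciferase under 5×NF-κB sites, in phenol-red free DMEM without G418, pretreated 1 h with compound (8-point half-log series), then stimulated with TNF-α for 6 h. Luciferase activity read as RLU after 10 min with Steady Lite reagent at room temperature.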

[2] = test system: 20S proteasome chymotrypsin-like activity in RPMI 8226 cells; experiment: Chymotrypsin-like activity of 20S proteasomes in treated cells; type: cell-based, human; settings: 1 hr, mean ± SD, n = 3
Procedure: RPMI 8226 (ATCC, CCL-155), the human multiple myeloma cell line, was cultured in RPMI 1640 medium supplemented with 2 mM L-glutamine, 100 units/ml penicillin, 100 μg/ml streptomycin, 1 mM sodium pyruvate and 10% heat inactivated fetal bovine serum at 37° C., 5% CO2 and 95% humidified air. […] DMSO was used as the vehicle control at a final concentration of 0.1%. Following 1 hr incubation of RMPI 8226 cells with the compounds, the cells were pelleted by centrifugation at 2,000 rpm for 10 sec at room temperature and washed 3× with ice-cold 1×Dulbecco's Phosphate-Buffered Saline (DPBS, Mediatech, Herndon, Va.). DPBS washed cells were lysed on ice for 15 min in lysis buffer (20 mM HEPES, 0.5 mM EDTA, 0.05% Triton X-100, pH 7.3) supplemented with protease inhibitor cocktail (Roche Diagnostics, Indianapolis, Ind.). Cell debris was pelleted by centrifugation at 14,000 rpm for 10 min, 4° C. and supernatants (=cell lysates) were transferred to a new tube. Protein concentration was determined by the BCA protein assay kit (Pierce Biotechnology, Rockford, Ill.). […] The total amount of protein used for each assay was 20 μg. The final concentration of Suc-LLVY-AMC and DMSO was 20 μM and 0.2%, respectively.

[3] = molecular target: T1, trypsin-like activity of rabbit muscle 20S proteasome (Oryctolagus cuniculus, UniProt G1SWK8); experiment: In vitro inhibition of 20S proteasome, Boc-LRR-AMC; type: biochemical; settings: for inhibition of the trypsin-like activity of the 20S proteasome: under the conditions tested; for EC50: purified rabbit 20S proteasome, Boc-LRR-AMC
T1 construct: EC50 Trypsin-like; other: purified rabbit 20S proteasome, Boc-LRR-AMC; other: under the conditions tested
T1 sequence (G1SWK8 1-271): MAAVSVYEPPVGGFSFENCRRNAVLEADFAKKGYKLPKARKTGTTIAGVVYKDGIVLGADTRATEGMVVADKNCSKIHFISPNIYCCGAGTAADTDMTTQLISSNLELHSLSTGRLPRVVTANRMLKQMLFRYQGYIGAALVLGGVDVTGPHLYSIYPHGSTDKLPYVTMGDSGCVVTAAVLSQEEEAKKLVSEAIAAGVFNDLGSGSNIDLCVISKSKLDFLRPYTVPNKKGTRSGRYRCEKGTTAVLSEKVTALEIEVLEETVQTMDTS

[4] = molecular target: T2, 20S proteasome chymotrypsin-like activity in PC-3 cells (Homo sapiens, UniProt P28074); experiment: Chymotrypsin-like activity of 20S proteasomes in treated cells; type: cell-based; settings: PC-3, read-out: % inhibition of the chymotrypsin-like activity of 20S proteasomes in PC-3 cell lysates, 1 hr; for inhibition at 0.01 µM: 10 nM; for inhibition at 0.1 µM: 100 nM; for inhibition at 1 µM: 1,000 nM; for inhibition at 10 µM: 10,000 nM
T2 construct: PC-3 (ATCC, CRL-1435), the human prostate cancer cell line; host or cells: PC-3
T2 sequence (P28074 60-263): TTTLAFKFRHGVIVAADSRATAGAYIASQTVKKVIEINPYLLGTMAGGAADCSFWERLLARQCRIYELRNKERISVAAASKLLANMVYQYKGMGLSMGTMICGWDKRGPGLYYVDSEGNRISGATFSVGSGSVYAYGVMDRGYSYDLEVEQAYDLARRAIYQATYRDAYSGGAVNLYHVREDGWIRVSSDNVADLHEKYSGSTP
Procedure: PC-3 (ATCC, CRL-1435), the human prostate cancer cell line, was cultured in F12K medium supplemented with 2 mM L-glutamine, 100 units/ml penicillin, 100 μg/ml streptomycin and 10% heat inactivated fetal bovine serum at 37° C., 5% CO2 and 95% humidified air. […] DMSO was used as the vehicle control at a final concentration of 0.1%. Following 1 hr incubation of PC-3 cells with the compounds, the cells were washed 3× with ice-cold 1×Dulbecco's Phosphate-Buffered Saline (DPBS, Mediatech, Herndon, Va.). […] Cell debris was pelleted by centrifugation at 14,000 rpm for 10 min, 4° C. and supernatants (=cell lysates) were transferred to a new tube. Protein concentration was determined by the BCA protein assay kit (Pierce Biotechnology, Rockford, Ill.). […] The total amount of protein used for each assay was 20 μg. The final concentration of Suc-LLVY-AMC and DMSO was 20 μM and 0.2%, respectively. Results are presented as the percent inhibition of the 20S proteasome chymotrypsin-like activity relative to the DMSO control.

[5] = Homo sapiens, HEK293, 1 h pretreatment, read-out: EC50

Row | Compound | EC50 [1, 5] [nM] | luciferase activity upon TNF-α stimulation [1] | % inhibition of the chymotrypsin-like activity of 20S proteasomes in RPMI 8226 cell lysates ([2]; 1 nM) [%] | % inhibition of the chymotrypsin-like activity of 20S proteasomes in RPMI 8226 cell lysates ([2]; 5 nM) [%] | % inhibition of the chymotrypsin-like activity of 20S proteasomes in RPMI 8226 cell lysates ([2]; 10 nM) [%] | % inhibition of the chymotrypsin-like activity of 20S proteasomes in RPMI 8226 cell lysates ([2]; 50 nM) [%] | % inhibition of the chymotrypsin-like activity of 20S proteasomes in RPMI 8226 cell lysates ([2]; 100 nM) [%] | inhibition of the trypsin-like activity of the 20S proteasome [3] | inhibition at 0.01 µM [4] [%] | inhibition at 0.1 µM [4] [%] | inhibition at 1 µM [4] [%] | inhibition at 10 µM [4] [%] | % inhibition of the chymotrypsin-like activity of 20S proteasomes in RPMI 8226 cell lysates ([2]; 500 nM) [%] | % inhibition of the chymotrypsin-like activity of 20S proteasomes in RPMI 8226 cell lysates ([2]; 1,000 nM) [%] | % inhibition of the chymotrypsin-like activity of 20S proteasomes in RPMI 8226 cell lysates ([2]; 10,000 nM) [%] | also measured
1 | C[C@@]12OC(=O)[C@]1([C@@H](O)[C@@H]1C=CCCC1)NC(=O)[C@@H]2CCCl [Formula II-16, Salinosporamide A] | ~7 | dose-dependent decrease of luciferase activity | 30 ± 7 | 85±7 | 94 ± 3 | 97 ± 0 | 98 ± 1 | able to inhibit the trypsin-like activity | – | – | – | – | – | – | – | EC50 (NCI-H292; Homo sapiens, NCI-H292, 48 h): 97 nM; EC50 (NCI-H292): 66 ± 29 nM
2 | CC[C@H]1C(=O)N[C@@]2([C@@H](O)[C@@H]3C=CCCC3)C(=O)O[C@@]12C [Formula II-17] | 960 ± 210 | – | 6 ± 6 | 10 ± 5 | 6 ± 6 | 26 ± 5 | 30±4 | able to inhibit the trypsin-like activity | 16 | 26 | 49 | 79 | 39 ± 3 | 46 ± 4 | 65 ± 5 | EC50 (NCI-H292; Homo sapiens, read-out: EC50): > 20000 nM
3 | C[C@H]1C(=O)N[C@@]2([C@@H](O)[C@@H]3C=CCCC3)C(=O)O[C@@]12C [Formula II-20] | – | dose-dependent decrease of luciferase activity | 3 ± 10 | 31 ± 9 | 37 ± 3 | 64 ± 3 | 66±3 | able to inhibit the trypsin-like activity | 38 | 57 | 71 | 90 | 71 ± 2 | 73 ± 2 | 87 ± 4 | EC50 ([1]; 1 h pretreatment): 849 ± 225 nM; EC50 [3]: 321 nM; EC50 ([3]; listed as II-20): 321 nM
